Laboratory results from US20250351832A1, “PHYTOCHEMICALS AS BIOPESTICIDES AND BIOSTIMULANTS” (KAY BEE BIO ORGANICS PVT. LTD., priority 2024, published 2025).
Read-outs that look alike come from different tables or passages of the source.

What was measured:
[1] = test system: Spodoptera litura; settings: Spodoptera litura on castor leaves; dose 1 ml/gm/lit.; 10 insects/treatment; 72 hrs after application
[2] = test system: Thrips; test: whole plant or invertebrate; settings: in Gossypium hirsutum, 48 h
[3] = test system: Mealy Bug; settings: mealy bug on cotton plants, green house, dose 1 ml/gm/lit. spray
[4] = test system: chili seedlings; test: Response of chili plants, greenhouse growth (Ex. 31); format: in vivo; settings: chili seedlings, dose 1 ml/gm/lit
[5] = test system: Helicoverpa armigera; settings: Helicoverpa armigera on okra fruits, dose 1 ml/gm/lit., 72 Hrs.
[6] = test system: Mite; settings: mite on okra plants, green house, dose 1 ml/gm/lit. spray
[7] = test system: Spodoptera litura; settings: Spodoptera litura 3rd instar on cabbage plants, dose 1 ml/gm/lit. spray
[8] = test system: Alternaria alternata; test: Alternaria leaf spot/blight on inoculated tomato plants (Ex. 28); format: in vivo; settings: tomato plants, Alternaria alternata; after 7 days; dose 1 ml/gm/lit
[9] = test system: Spodoptera litura; test: whole plant or invertebrate; settings: 72 h
[10] = test system: Thrips; settings: thrips on cotton plants, greenhouse, dose 1 ml/gm/lit. spray
[11] = test system: Helicoverpa armigera; settings: Helicoverpa armigera 3rd instar on chickpea plants, dose 1 ml/gm/lit. spray
[12] = test system: Alternaria alternata; test: In vitro poisoned food technique against fungus (Ex. 20); format: cell-based; settings: poisoned food technique, PDA medium, dose 1 ml/gm/lit., after seven days
[13] = test system: Aphid; settings: Aphids on cotton plants, green house; dose 1 ml/gm/lit.; 10 insects/plant, 10 plants/treatment; 48 hrs
[14] = test system: Mealy Bug; settings: Mealy Bug on cotton leaves, dose 1 ml/gm/lit., 48 Hrs.
[15] = test system: Thrips; settings: Thrips on cotton leaves; dose 1 ml/gm/lit.; 10 insects/treatment; 48 hrs after application
[16] = test system: Mite; settings: Dose 1 ml/gm/lit.
[17] = test system: Aphid; test: whole plant or invertebrate; settings: 48 h
[18] = test system: tomato seedlings; test: Response of tomato plants, greenhouse growth (Ex. 30); format: in vivo; settings: tomato seedlings, dose 1 ml/gm/lit
[19] = test system: Aphid; settings: Dose 1 ml/gm/lit.
[20] = read-out: % Corrected Mortality at 48 Hrs.
[21] = read-out: % Mortality at 48 Hrs.
[22] = 48 hrs, corrected for water control
[23] = 10 insects/treatment, 4 replications
[24] = 72 hrs, corrected for water control

## C=CCc1ccc(OC)cc1 [Methyl chavicol]
[1]
  Total No. of dead insect at 72 Hrs.: 6.50
[2]; [20]
  mortality at 1 mL or g/L: 48.6%
[2]; [21]
  mortality at 1 mL or g/L: 55%
[3]; 48 hrs after application
  % Mortality at 48 Hrs.: 60.00%
  Total No. of dead insect at 48 Hrs.: 60.00
[3]; [22]
  % Corrected Mortality at 48 Hrs.: 55.56%
[4]; 5th day after application
  CCI 5th Day: 12.70
  Plant Height (cm) 5th Day: 5.97 cm
[4]; 10th day
  CCI % Increase over pre on 10th Day: 38.53%
  Plant Height % Increase over pre on 10th Day: 44.42%
  Root Lenght (cm) 10th Day: 3.11 cm
  Stem Girth % Increase over pre on 10th Day: 45.91%
[4]; 10th day after application
  CCI 10th Day: 15.1
  Plant Height (cm) 10th Day: 6.21 cm
[4]; 10th day, vs water control
  Root Lenght % Increase over control: 13.83%
[5]; [23]
  Total No. of dead insect at 72 Hrs.: 6.25
[5]
  % Mortality at 72 Hrs.: 62.50%
[5]; corrected for water control
  % Corrected Mortality at 72 Hrs.: 62.50%
[6]; 48 hrs after application
  % Mortality at 48 Hrs.: 42.50%
  Total No. of dead insect at 48 Hrs.: 42.50
[6]; [22]
  % Corrected Mortality at 48 Hrs.: 39.47%
[7]; 72 hrs after application
  % Mortality at 72 Hrs.: 62.50%
[7]; [24]
  % Corrected Mortality at 72 Hrs.: 60.53%
[8]
  % Disease reduction over Control: 48.76%
[9]; read-out: % Corrected Mortality at 72 Hrs.
  mortality at 1 mL or g/L: 63.2%
[9]; read-out: % Mortality at 72 Hrs.
  mortality at 1 mL or g/L: 65%
[10]; 48 hrs after application
  % Mortality at 48 Hrs.: 57.50%
  Total No. of dead insect at 48 Hrs.: 57.50
[10]; [22]
  % Corrected Mortality at 48 Hrs.: 52.78%
[11]; 72 hrs after application
  % Mortality at 72 Hrs.: 67.50%
[11]; [24]
  % Corrected Mortality at 72 Hrs.: 67.50%
[12]
  Mean colony Diameter (mm): 54.00 mm
[12]; vs untreated control, read-out: % Inhibition of growth
  inhibition of growth at 1 mL or g/L: 38.6%
[13]
  Total No. of dead insect at 48 Hrs.: 67.50
[14]; [23]
  Total No. of dead insect at 48 Hrs.: 6.25
[14]
  % Mortality at 48 Hrs.: 62.50%
[14]; corrected for water control
  % Corrected Mortality at 48 Hrs.: 60.53%
[15]
  Total No. of dead insect at 48 Hrs.: 5.50
[16]; 10 insects/treatment, 4 replications, okra leaves
  Total No. of dead insect at 48 Hrs.: 4.50
[16]; 48 hrs
  % Corrected Mortality at 48 Hrs.: 40.54%
  % Mortality at 48 Hrs.: 45.00%
[17]; [20]
  mortality at 1 mL or g/L: 61.8%
[17]; [21]
  mortality at 1 mL or g/L: 67.5%
[18]; 5th day after application
  Plant Height 5th Day: 7.16 cm
  Stem Girth 5th Day: 1.50 mm
  CCI 5th Day: 14.23
[18]; 10th day after application
  Plant Height 10th Day: 7.86 cm
  Stem Girth 10th Day: 2.10 mm
  CCI 10th Day: 15.23
[18]; 10th day
  Plant Height % Increase over pre on 10th Day: 28.43%
  Stem Girth % Increase over pre on 10th Day: 55.56%
  CCI % Increase over pre on 10th Day: 23.12%
  Root Length (cm) 10th Day: 4.13 cm
[18]; 10th day, vs water control
  Root Length % Increase over control: 24.05%
[19]; 10 insects/treatment, 4 replications, cotton leaves
  Total No. of dead insect at 48 Hrs.: 6.50
[19]; 48 hrs
  % Corrected Mortality at 48 Hrs.: 60.00%
  % Mortality at 48 Hrs.: 65.00%
